Here are results for 14 molecules from patent US11993599B2, “Therapeutic compounds” (Genentech, Inc., priority 2021, dated 2024).

The target of one test is T1, BRG1 (Homo sapiens, UniProt P51532).
T1 construct: either BRM primary antibody (Cell signaling Cat #11966) or BRG primary antibody (Abcam, ab 110641); endogenous in cells; host or cells: SW1573
Description: Immunofluorescence assay for BRG1 degradation in SW1573 cells. The format is cell-based. The settings on record: 20 hours incubation; for DC50: immunofluorescence mean nuclear signal, read-out: BRG1 IF Degradation IC50; for Dmax: SW1573, 20 h, normalized to a known degrader control, read-out: BRG1 IF Degradation Sinf (%). The method in brief:
(§1)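 Imaging-based readout in SW1573: 20 h dosing, formaldehyde fixation, antibody staining for either remodeler, nuclear intensity per cell quantified. Values normalized to control degrader; floating-maximum fit.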

Another test concerns the target BRM (Homo sapiens, UniProt P51531). The experiment in a line: Immunofluorescence assay for BRM degradation in SW1573 cells. The conditions noted are these: 20 hours incubation; for DC50: immunofluorescence mean nuclear signal, read-out: BRM IF Degradation IC50; for BRM IF Degradation Sinf (%): normalized to a known degrader control. Further details: treated overnight at 4° C. with either BRM primary antibody (Cell signaling Cat #11966) or BRG primary antibody; endogenous in cells; host or cells: SW1573. The class given is cell-based. The method in brief: as §1

The structures appear in SMILES notation.

T1 sequence (P51532 whole entry): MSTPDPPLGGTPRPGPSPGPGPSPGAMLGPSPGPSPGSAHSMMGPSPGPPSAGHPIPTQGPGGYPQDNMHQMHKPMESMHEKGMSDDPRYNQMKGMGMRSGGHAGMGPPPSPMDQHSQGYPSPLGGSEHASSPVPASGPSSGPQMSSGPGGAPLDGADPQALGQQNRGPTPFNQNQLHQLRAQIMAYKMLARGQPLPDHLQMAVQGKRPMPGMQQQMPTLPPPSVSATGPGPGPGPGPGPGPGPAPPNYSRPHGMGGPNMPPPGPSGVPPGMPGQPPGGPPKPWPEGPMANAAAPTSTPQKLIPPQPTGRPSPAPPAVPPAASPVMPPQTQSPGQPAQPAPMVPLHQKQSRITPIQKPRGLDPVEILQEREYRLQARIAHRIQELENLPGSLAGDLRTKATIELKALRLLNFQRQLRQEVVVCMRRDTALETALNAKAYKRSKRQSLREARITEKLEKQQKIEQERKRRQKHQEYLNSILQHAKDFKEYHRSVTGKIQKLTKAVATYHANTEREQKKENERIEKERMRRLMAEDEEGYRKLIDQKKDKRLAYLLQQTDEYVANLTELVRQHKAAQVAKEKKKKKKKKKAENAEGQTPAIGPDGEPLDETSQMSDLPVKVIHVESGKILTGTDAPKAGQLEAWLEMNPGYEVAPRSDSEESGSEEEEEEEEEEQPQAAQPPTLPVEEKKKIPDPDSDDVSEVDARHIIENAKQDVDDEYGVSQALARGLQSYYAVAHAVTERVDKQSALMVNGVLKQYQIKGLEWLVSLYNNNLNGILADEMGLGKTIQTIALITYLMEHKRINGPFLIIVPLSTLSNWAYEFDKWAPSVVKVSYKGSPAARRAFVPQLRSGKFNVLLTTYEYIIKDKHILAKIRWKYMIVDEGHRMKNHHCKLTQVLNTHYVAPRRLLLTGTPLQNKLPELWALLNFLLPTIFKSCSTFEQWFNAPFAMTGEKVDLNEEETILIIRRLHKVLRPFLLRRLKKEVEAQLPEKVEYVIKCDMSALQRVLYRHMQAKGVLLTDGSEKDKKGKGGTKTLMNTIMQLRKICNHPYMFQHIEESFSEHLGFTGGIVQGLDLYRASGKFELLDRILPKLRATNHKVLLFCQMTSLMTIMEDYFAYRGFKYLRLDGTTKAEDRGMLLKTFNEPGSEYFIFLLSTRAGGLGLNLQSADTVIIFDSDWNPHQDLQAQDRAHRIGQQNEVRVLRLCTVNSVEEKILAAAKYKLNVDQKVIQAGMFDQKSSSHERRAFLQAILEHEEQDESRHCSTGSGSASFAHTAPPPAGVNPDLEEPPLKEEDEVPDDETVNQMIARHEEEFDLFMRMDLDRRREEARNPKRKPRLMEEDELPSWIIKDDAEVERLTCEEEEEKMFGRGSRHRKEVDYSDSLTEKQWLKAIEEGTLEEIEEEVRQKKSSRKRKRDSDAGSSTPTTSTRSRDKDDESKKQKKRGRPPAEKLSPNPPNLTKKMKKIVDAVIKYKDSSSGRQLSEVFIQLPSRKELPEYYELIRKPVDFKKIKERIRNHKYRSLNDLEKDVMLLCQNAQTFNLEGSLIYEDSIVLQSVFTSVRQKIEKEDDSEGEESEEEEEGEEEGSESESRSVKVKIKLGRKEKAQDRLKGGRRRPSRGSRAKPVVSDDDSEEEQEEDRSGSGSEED
BRM, sequence (P51531 whole entry): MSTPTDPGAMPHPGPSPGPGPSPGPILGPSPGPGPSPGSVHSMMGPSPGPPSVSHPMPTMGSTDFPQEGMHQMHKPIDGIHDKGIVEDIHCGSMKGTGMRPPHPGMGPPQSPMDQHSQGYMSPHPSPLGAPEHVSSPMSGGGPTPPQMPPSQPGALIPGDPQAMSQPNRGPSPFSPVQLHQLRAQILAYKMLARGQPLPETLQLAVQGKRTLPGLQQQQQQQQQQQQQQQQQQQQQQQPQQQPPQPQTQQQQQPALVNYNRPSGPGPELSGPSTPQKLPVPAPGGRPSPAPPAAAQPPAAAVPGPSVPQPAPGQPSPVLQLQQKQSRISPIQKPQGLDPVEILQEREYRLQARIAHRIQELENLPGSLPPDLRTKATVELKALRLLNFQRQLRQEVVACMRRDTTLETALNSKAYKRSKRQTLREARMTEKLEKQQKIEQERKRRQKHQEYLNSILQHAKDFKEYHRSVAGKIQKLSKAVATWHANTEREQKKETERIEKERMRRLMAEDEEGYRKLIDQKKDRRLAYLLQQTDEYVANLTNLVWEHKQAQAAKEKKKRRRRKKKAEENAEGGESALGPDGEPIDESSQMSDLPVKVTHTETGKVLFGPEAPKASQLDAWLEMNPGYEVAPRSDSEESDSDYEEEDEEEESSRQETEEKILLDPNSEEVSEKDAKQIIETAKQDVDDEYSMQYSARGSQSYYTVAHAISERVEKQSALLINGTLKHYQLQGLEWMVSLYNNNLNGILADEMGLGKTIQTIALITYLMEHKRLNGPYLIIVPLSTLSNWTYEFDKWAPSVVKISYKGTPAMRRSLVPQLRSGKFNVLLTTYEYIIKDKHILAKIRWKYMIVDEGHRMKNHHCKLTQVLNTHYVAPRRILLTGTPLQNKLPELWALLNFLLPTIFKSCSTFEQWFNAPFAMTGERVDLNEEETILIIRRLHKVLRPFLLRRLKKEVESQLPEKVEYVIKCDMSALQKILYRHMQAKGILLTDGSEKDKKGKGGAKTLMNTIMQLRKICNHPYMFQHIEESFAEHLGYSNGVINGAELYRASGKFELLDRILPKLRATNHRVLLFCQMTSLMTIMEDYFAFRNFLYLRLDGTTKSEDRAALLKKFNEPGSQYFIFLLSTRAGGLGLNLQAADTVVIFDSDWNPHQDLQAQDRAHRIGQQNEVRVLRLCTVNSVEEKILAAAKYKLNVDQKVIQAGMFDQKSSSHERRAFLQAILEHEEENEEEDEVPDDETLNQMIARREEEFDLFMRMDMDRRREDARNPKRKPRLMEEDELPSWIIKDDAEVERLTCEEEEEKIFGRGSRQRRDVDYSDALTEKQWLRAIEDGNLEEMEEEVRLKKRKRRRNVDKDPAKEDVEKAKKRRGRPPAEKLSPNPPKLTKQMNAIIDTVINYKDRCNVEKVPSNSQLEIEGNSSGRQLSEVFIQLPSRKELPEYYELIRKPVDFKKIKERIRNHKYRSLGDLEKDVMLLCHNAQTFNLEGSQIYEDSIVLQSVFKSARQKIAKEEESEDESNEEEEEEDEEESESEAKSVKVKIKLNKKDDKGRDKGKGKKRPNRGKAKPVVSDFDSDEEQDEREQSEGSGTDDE

For `Nc1nnc(-c2ccccc2O)cc1N1CC2CCC(C1)N2c1ccnc(C#CCN2CCC3COCC3C2)c1` (stereo not shown) [Compound 88, 2-[5-[8-[2-[3-(3,3a,4,6,7,7a-hexahydro-1H-furo[3,4-c]pyridin-5-yl)prop-1-ynyl]-4-pyridyl]-3,8-diazabicyclo[3.2.1]octan-3-yl]-6-amino-pyridazin-3-yl]phenol], at BRG1, the DC50 is under 10 nM and the Dmax is 0 to 30%. Besides, at BRM, the DC50 is under 10 nM and the “BRM IF Degradation Sinf (%)” value was “E (E indicates −30%-−70%)”.
For `CNC(=O)C1COCCN1CC#Cc1cc(N2C3CCC2CN(c2cc(-c4ccccc4O)nnc2N)C3)ccn1` (stereo not shown) [Compound 89, 4-[3-[4-[3-[3-amino-6-(2-hydroxyphenyl)pyridazin-4-yl]-3,8-diazabicyclo[3.2.1]octan-8-yl]-2-pyridyl]prop-2-ynyl]-N-methyl-morpholine-3-carboxamide], the DC50 on BRG1 was over 100 nM; on BRM, 10 to 100 nM. The “BRM IF Degradation Sinf (%)” value on BRM was “E (E indicates −30%-−70%)”.
Take `Nc1nnc(-c2ccccc2O)cc1N1CC2CCC(C1)N2c1ccnc(C#CCN2CCC[C@@H]3OCC[C@@H]32)c1` [Compound 90, 2-[5-[8-[2-[3-[(3aS,7aS)-3,3a,5,6,7,7a-hexahydro-2H-furo[3,2-b]pyridin-4-yl]prop-1-ynyl]-4-pyridyl]-3,8-diazabicyclo[3.2.1]octan-3-yl]-6-amino-pyridazin-3-yl]phenol]: at BRG1, the DC50 fell in the range of 10 to 100 nM and the Dmax was in the range of 0 to 30%. Further, on BRM, the DC50 was 10 to 100 nM and the “BRM IF Degradation Sinf (%)” value was “E (E indicates −30%-−70%)”.
In the case of `Nc1nnc(-c2ccccc2O)cc1N1CC2CCC(C1)N2c1ccnc(C#CCN2CC3CCC3C2)c1` (stereo not shown) [Compound 91, 2-[6-amino-5-[8-[2-[3-(3-azabicyclo[3.2.0]heptan-3-yl)prop-1-ynyl]-4-pyridyl]-3,8-diazabicyclo[3.2.1]octan-3-yl]pyridazin-3-yl]phenol], on BRG1, the DC50 was under 10 nM and the Dmax lay within 30 to 70%. Besides, on BRM, the DC50 is under 10 nM and the “BRM IF Degradation Sinf (%)” value was “E (E indicates −30%-−70%)”.
Turning to `Nc1nnc(-c2ccccc2O)cc1N1CC2CCC(C1)N2c1ccnc(C#CCN2CC3CCOCC3C2)c1` (stereo not shown) [Compound 92, 2-[5-[8-[2-[3-(3,3a,4,6,7,7a-hexahydro-1H-pyrano[3,4-c]pyrrol-2-yl)prop-1-ynyl]-4-pyridyl]-3,8-diazabicyclo[3.2.1]octan-3-yl]-6-amino-pyridazin-3-yl]phenol], at BRG1, the DC50 was under 10 nM and the Dmax was 30 to 70%. Besides, at BRM, the DC50 was under 10 nM and the “BRM IF Degradation Sinf (%)” value was “F (F indicates −71%-−120%)”.
As to `Nc1nnc(-c2ccccc2O)cc1N1CC2CCC(C1)N2c1ccnc(C#CCN2CC3CCC(C3)C2)c1` [Compound 93, 2-[6-amino-5-[8-[2-[3-(3-azabicyclo[3.2.1]octan-3-yl)prop-1-ynyl]-4-pyridyl]-3,8-diazabicyclo[3.2.1]octan-3-yl]pyridazin-3-yl]phenol], the DC50 on BRG1 was over 100 nM; on BRM, under 10 nM. Besides, the “BRM IF Degradation Sinf (%)” value at BRM is given as “E (E indicates −30%-−70%)”.
`Nc1nnc(-c2ccccc2O)cc1N1CC2CCC(C1)N2c1ccnc(C#CCN2CCC3CCCC32)c1` (stereo not shown) [Compound 94, 2-[5-[8-[2-[3-(3,3a,4,5,6,6a-hexahydro-2H-cyelopenta[b]pyrrol-1-yl)prop-1-ynyl]-4-pyridyl]-3,8-diazabicyclo[3.2.1]octan-3-yl]-6-amino-pyridazin-3-yl]phenol]: at BRG1, the DC50 is under 10 nM and the Dmax lay in the range of 30 to 70%. Further, at BRM, the DC50 was under 10 nM and the “BRM IF Degradation Sinf (%)” value is listed as “E (E indicates −30%-−70%)”.
As for `Nc1nnc(-c2ccccc2O)cc1N1CC2CCC(C1)N2c1ccnc(C#CCN2CC(C(F)F)C2)c1` [Compound 95, 2-[6-amino-5-[8-[2-[3-[3-(difluoromethyl)azetidin-1-yl]prop-1-ynyl]-4-pyridyl]-3,8-diazabicyclo[3.2.1]octan-3-yl]pyridazin-3-yl]phenol], at BRG1, the DC50 is under 10 nM and the Dmax lay in the range of 30 to 70%. In addition, on BRM, the DC50 is under 10 nM and the “BRM IF Degradation Sinf (%)” value is “E (E indicates −30%-−70%)”.
Consider `CNC(=O)C1CCCCN1CC#Cc1cc(N2C3CCC2CN(c2cc(-c4ccccc4O)nnc2N)C3)ccn1` (stereo not shown) [Compound 96, 1-[3-[4-[3-[3-amino-6-(2-hydroxyphenyl)pyridazin-4-yl]-3,8-diazabicyclo[3.2.1]octan-8-yl]-2-pyridyl]prop-2-ynyl]-N-methyl-piperidine-2-carboxamide], for which, at BRG1, the DC50 was in the range of 10 to 100 nM and the Dmax lay in the range of 0 to 30%. Moreover, at BRM, the DC50 is over 100 nM and the “BRM IF Degradation Sinf (%)” value is recorded as “E (E indicates −30%-−70%)”.
For `Nc1nnc(-c2ccccc2O)cc1N1CC2CCC(C1)N2c1ccnc(C#CCN2CC3(CC(F)C3)C2)c1` [Compound 97, 2-[6-amino-5-[8-[2-[3-(6-fluoro-2-azaspiro[3.3]heptan-2-yl)prop-1-ynyl]-4-pyridyl]-3,8-diazabicyclo[3.2.1]octan-3-yl]pyridazin-3-yl]phenol] the same measures were under 10 nM, 30 to 70%, under 10 nM and “F (F indicates −71%-−120%)”.
Regarding `Nc1nnc(-c2ccccc2O)cc1N1CC2CCC(C1)N2c1ccnc(C#CCN2CC3COC(C3)C2)c1` (stereo not shown) [Compound 98, 2-[6-amino-5-[8-[2-[3-(6-oxa-3-azabicyclo[3.2.1]octan-3-yl)prop-1-ynyl]-4-pyridyl]-3,8-diazabicyclo[3.2.1]octan-3-yl]pyridazin-3-yl]phenol], the DC50 on BRG1 was over 100 nM. For the same molecule, at BRM, the DC50 was in the range of 10 to 100 nM and the “BRM IF Degradation Sinf (%)” value is given as “E (E indicates −30%-−70%)”.
`Nc1nnc(-c2ccccc2O)cc1N1CC2CCC(C1)N2c1ccnc(C#CCN2CCCC3(CC3)C2)c1` [Compound 99, 2-[6-amino-5-[8-[2-[3-(5-azaspiro[2.5]octan-5-yl)prop-1-ynyl]-4-pyridyl]-3,8-diazabicyclo[3.2.1]octan-3-yl]pyridazin-3-yl]phenol]: on BRG1, the DC50 is under 10 nM and the Dmax was in the range of 30 to 70%. On BRM, the DC50 is under 10 nM and the “BRM IF Degradation Sinf (%)” value was “E (E indicates −30%-−70%)”.
As to `Nc1nnc(-c2ccccc2O)cc1N1CC2CCC(C1)N2c1ccnc(C#CCN2CCC23CCCOC3)c1` (stereo not shown) [Compound 100, 2-[6-amino-5-[8-[2-[3-(8-oxa-1-azaspiro[3.5]nonan-1-yl)prop-1-ynyl]-4-pyridyl]-3,8-diazabicyclo[3.2.1]octan-3-yl]pyridazin-3-yl]phenol], at BRG1, the DC50 was under 10 nM and the Dmax fell in the range of 30 to 70%. In addition, at BRM, the DC50 is under 10 nM and the “BRM IF Degradation Sinf (%)” value was “E (E indicates −30%-−70%)”.
Consider `Nc1nnc(-c2ccccc2O)cc1N1CC2CCC(C1)N2c1ccnc(C#CCN2CC3CCCC(C2)O3)c1` [Compound 101, 2-[6-amino-5-[8-[2-[3-(9-oxa-3-azabicyclo[3.3.1]nonan-3-yl)prop-l-ynyl]-4-pyridyl]-3,8-diazabicyclo[3.2.1]octan-3-yl]pyridazin-3-yl]phenol], for which, at BRG1, the DC50 was over 100 nM. For the same molecule, on BRM, the DC50 was 10 to 100 nM and the “BRM IF Degradation Sinf (%)” value was “E (E indicates −30%-−70%)”.
